In assay [1] the target is T1, CD73 on U138 human neuroglioma cells (Homo sapiens, UniProt P21589).
T1 construct: U138 cells were obtained from ATCC and cultured in DMEM with 10% FBS; host or cells: U138 human neuroglioma cells
T1 sequence (P21589 27-549): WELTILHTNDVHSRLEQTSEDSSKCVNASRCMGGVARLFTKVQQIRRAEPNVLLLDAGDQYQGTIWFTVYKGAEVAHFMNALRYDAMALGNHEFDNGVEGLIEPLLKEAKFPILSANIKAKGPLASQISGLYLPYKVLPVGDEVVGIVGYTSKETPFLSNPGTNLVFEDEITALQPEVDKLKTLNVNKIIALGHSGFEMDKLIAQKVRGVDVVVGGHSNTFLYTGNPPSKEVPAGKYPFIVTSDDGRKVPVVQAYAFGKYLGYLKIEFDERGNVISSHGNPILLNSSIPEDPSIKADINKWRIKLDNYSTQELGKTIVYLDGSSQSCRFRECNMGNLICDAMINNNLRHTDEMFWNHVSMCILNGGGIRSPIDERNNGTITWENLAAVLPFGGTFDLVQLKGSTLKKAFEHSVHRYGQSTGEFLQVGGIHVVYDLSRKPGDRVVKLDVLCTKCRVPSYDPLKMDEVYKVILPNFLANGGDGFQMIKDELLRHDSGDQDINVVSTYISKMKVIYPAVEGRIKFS
As to the kind of experiment: CD73 Cell-Based Assay. Conditions: U138 cells, AMP substrate, 2 hours at 37° C., inorganic phosphate by malachite green. Put shortly:
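Whole U138 cells washed free of phosphate were incubated with 200 μM AMP (mixture concentration before equal-volume addition) plus compound in HEPES-buffered saline, pH 7.4, for 2 h at 37 °C, 5% CO2. Adenosine-forming activity read as inorganic phosphate released into supernatant by malachite green.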

The next assay concerns the target T2, Human CD73 (Homo sapiens, UniProt P21589).
T2 construct: purchased R&D Systems; host or cells: CHO cells
T2 sequence (P21589 27-549): T1 sequence (P21589 27-549)
Briefly: CD73 Enzyme Assay. It is filed as biochemical. The settings on record: 0.25 nM hCD73, 25 μM AMP, kinetic read at 360 nm; read-out: CD73 Enzyme Assay IC50.

This passage reports IC50 results from US11591355B2 (Peloton Therapeutics, Inc., priority 2017, dated 2023).

Bounds are passed on as bounds.

Regarding `CC(C)(O)C#Cc1nc(NC2CCCC2)c2ccn([C@@H]3O[C@H](COCP(=O)(O)O)[C@@H](O)[C@H]3O)c2n1` [Compound 272, [(2R,3S,4R,5R)-5-[4-(cyclopentylamino)-2-(3-hydroxy-3-methyl-but-1-ynyl)pyrrolo[2,3-d]pyrimidin-7-yl]-3,4-dihydroxy-tetrahydro-furan-2-yl]methoxy-methylphosphonic acid], the figures for the IC50 (in assay [1]; on Human CD73) were below 10 nM and 10 to 100 nM, respectively.

With `O=P(O)(O)COC[C@H]1O[C@@H](n2ncc3c(N4CC5CCCC5C4)nc(Cl)nc32)[C@H](O)[C@@H]1O` (stereo partly drawn) [Compound 274, [(2R,3S,4R,5R)-5-[4-(3,3a,4,5,6,6a-hexa-hydro-1H-cyclopenta-[c]pyrrol-2-yl)-6-chloro-pyrazolo[3,4-d]-pyrimidin-1-yl]-3,4-dihydroxy-tetrahydro-furan-2-yl]methoxy-methylphosphonic acid], the IC50 (in assay [1]; on Human CD73) was below 10 nM each time.

For `O=P(O)(O)COC[C@H]1O[C@@H](n2ncc3c(N4CCC(F)(F)C4)nc(Cl)nc32)[C@H](O)[C@@H]1O` [Compound 275, [(2R,3S,4R,5R)-5-[6-chloro-4-(3,3-difluoro-pyrrolidin-1-yl)-pyrazolo[3,4-d]-pyrimidin-1-yl]-3,4-dihydroxy-tetrahydro-furan-2-yl]methoxy-methylphosphonic acid], the IC50 (in assay [1]; on Human CD73) was below 10 nM throughout.

On to `O=P(O)(O)COC[C@H]1O[C@@H](n2ccc3c(NC4CCCC4)nc(C#CC4(O)CC4)nc32)[C@H](O)[C@@H]1O` [Compound 276, ((((2R,3S,4R,5R)-5-(4-(cyclopentylamino)-2-((1-hydroxycyclopropyl)ethynyl)-7H-pyrrolo[2,3-d]pyrimidin-7-yl)-3,4-dihydroxytetrahydrofuran-2-yl)methoxy)methyl)phosphonic acid], for which the IC50 (in assay [1]; at Human CD73) was below 10 nM in each case.

On to `O=P(O)(O)COC[C@H]1O[C@@H](n2ncc3c(NC4CC5CC5C4)nc(Cl)nc32)[C@H](O)[C@@H]1O` (stereo partly drawn) [Compound 279, [(2R,3S,4R,5R)-5-[4-(3-bicyclo[3.1.0]hexa-nylamino)-6-chloro-pyrazolo[3,4-d]-pyrimidin-1-yl]-3,4-dihydroxy-tetrahydro-furan-2-yl]methoxy-methylphosphonic acid], for which the concentration for half-maximal inhibition (IC50) (in assay [1]; on Human CD73) was below 10 nM each time.

With `O=P(O)(O)COC[C@H]1O[C@@H](n2ncc3c(N4CC5CC5C4)nc(Cl)nc32)[C@H](O)[C@@H]1O` (stereo partly drawn) [Compound 280, [(2R,3S,4R,5R)-5-[4-(3-azabicyclo[3.1.0]-hexan-3-yl)-6-chloro-pyrazolo[3,4-d]-pyrimidin-1-yl]-3,4-dihydroxy-tetrahydro-furan-2-yl]methoxy-methylphosphonic acid], the IC50 (in assay [1]; on Human CD73) was below 10 nM in each case.

Regarding `O=P(O)(O)COC[C@H]1O[C@@H](n2ccc3c(N4CCC[C@@H]4CO)nc(Cl)nc32)[C@H](O)[C@@H]1O` [Compound 283, [(2R,3S,4R,5R)-5-[2-chloro-4-[(2R)-2-(hydroxymethyl)-pyrrolidin-1-yl]-pyrrolo[2,3-d]-pyrimidin-7-yl]-3,4-dihydroxy-tetrahydro-furan-2-yl]methoxy-methylphosphonic acid], the IC50 in assay [1] lay within 100 to 1000 nM; at Human CD73 it was 10 to 100 nM.

Turning to `C[C@H]1CCCN1c1nc(Cl)nc2c1ccn2[C@@H]1O[C@H](COCP(=O)(O)O)[C@@H](O)[C@H]1O` [Compound 284, [(2R,3S,4R,5R)-5-[2-chloro-4-[(2S)-2-methylpyrrolidin-1-yl]pyrrolo[2,3-d]-pyrimidin-7-yl]-3,4-dihydroxy-tetrahydro-furan-2-yl]methoxy-methylphosphonic acid], the IC50 (in assay [1]; on Human CD73) was 10 to 100 nM each time.

Regarding `O=P(O)(O)COC[C@H]1O[C@@H](c2c[nH]c3c(N4CC5CCCC5C4)nc(Cl)nc23)[C@H](O)[C@@H]1O` (stereo partly drawn) [Compound 285, ((((2R,3S,4R,5S)-5-(2-chloro-4-(hexahydrocyclopenta[c]pyrrol-2 (1H)-yl)-5H-pyrrolo[3,2-d]pyrimidin-7-yl)-3,4-dihydroxytetrahydrofuran-2-yl)methoxy)methyl)phosphonic acid], the IC50 (in assay [1]; at Human CD73) was below 10 nM throughout.

`O=P(O)(O)CS(=O)(=O)C[C@H]1O[C@@H](n2ncc3c(NC4CCCC4)nc(Cl)nc32)[C@H](O)[C@@H]1O` [Compound 287, [(2S,3S,4R,5R)-5-[6-chloro-4-(cyclopentyl-amino)pyrazolo[3,4-d]-pyrimidin-1-yl]-3,4-dihydroxy-tetrahydro-furan-2-yl]methyl-sulfonylmethylphos-phonic acid]: the IC50 (in assay [1]; on Human CD73) was below 10 nM in each case.

As to `N#Cc1nc(N2CC3CC3C2)c2cnn([C@@H]3O[C@H](CS(=O)(=O)CP(=O)(O)O)[C@@H](O)[C@H]3O)c2n1` (stereo partly drawn) [Compound 288, [(2S,3S,4R,5R)-5-[4-(3-azabicyclo[3.1.0]-hexan-3-yl)-6-cyano-pyrazolo[3,4-d]-pyrimidin-1-yl]-3,4-dihydroxy-tetrahydro-furan-2-yl]methyl-sulfonylmethylphos-phonic acid], the IC50 (in assay [1]; at Human CD73) was 10 to 100 nM in each case.

As to `O=P(O)(O)CS(=O)(=O)C[C@H]1O[C@@H](n2ccc3c(NC4CCCC4)nc(C(F)F)nc32)[C@H](O)[C@@H]1O` [Compound 289, [(2S,3S,4R,5R)-5-[4-(cyclopentylamino)-2-(difluoromethyl)-pyrrolo[2,3-d]-pyrimidin-7-yl]-3,4-dihydroxy-tetrahydro-furan-2-yl]methyl-sulfonylmethylphos-phonic acid], the IC50 (in assay [1]; on Human CD73) was below 10 nM throughout.

For `C[C@@H](Nc1nc(C#N)nc2c1cnn2[C@@H]1O[C@H](CS(=O)(=O)CP(=O)(O)O)[C@@H](O)[C@H]1O)c1ccc(F)cc1` [Compound 291, [(2S,3S,4R,5R)-5-[6-cyano-4-[[(1R)-1-(4-fluorophenyl)ethyl]-amino]pyrazolo[3,4-d]-pyrimidin-1-yl]-3,4-dihydroxy-tetrahydro-furan-2-yl]methyl-sulfonylmethylphos-phonic acid], the IC50 (in assay [1]; on Human CD73) was below 10 nM in each case.

On to `N#Cc1nc(NC2CC(F)(F)C2)c2cnn([C@@H]3O[C@H](CS(=O)(=O)CP(=O)(O)O)[C@@H](O)[C@H]3O)c2n1` [Compound 292, [(2S,3S,4R,5R)-5-[6-cyano-4-[(3,3-difluoro-difluorocyclobutyl)-amino]pyrazolo[3,4-d]-pyrimidin-1-yl]-3,4-dihydroxy-tetrahydro-furan-2-yl]methyl-sulfonylmethylphos-phonic acid], for which the IC50 (in assay [1]; on Human CD73) was below 10 nM each time.

Regarding `N#Cc1nc(N2CCC(F)(F)C2)c2cnn([C@@H]3O[C@H](CS(=O)(=O)CP(=O)(O)O)[C@@H](O)[C@H]3O)c2n1` [Compound 293, [(2S,3S,4R,5R)-5-[6-cyano-4-(3,3-difluoro-pyrrolidin-1-yl)-pyrazolo[3,4-d]-pyrimidin-1-yl]-3,4-dihydroxy-tetrahydro-furan-2-yl]methyl-sulfonylmethylphos-phonic acid], the IC50 (in assay [1]; on Human CD73) was 10 to 100 nM in each case.

A word on the IC50: it is the concentration at which inhibition is half-maximal.
